The values that follow come from patent publication US10550102B2, “Indane and indoline derivatives and the use thereof as soluble guanylate cyclase activators” (NOVARTIS AG, priority 2014, dated 2020).

Each structure is given as a SMILES string.

In general, EC50 refers to the concentration that produces a half-maximal response.

Sequence of soluble guanylate cyclase (human GUCYA3 and GUCYB3) overexpressed in CHO cells (Q02108 whole entry partner): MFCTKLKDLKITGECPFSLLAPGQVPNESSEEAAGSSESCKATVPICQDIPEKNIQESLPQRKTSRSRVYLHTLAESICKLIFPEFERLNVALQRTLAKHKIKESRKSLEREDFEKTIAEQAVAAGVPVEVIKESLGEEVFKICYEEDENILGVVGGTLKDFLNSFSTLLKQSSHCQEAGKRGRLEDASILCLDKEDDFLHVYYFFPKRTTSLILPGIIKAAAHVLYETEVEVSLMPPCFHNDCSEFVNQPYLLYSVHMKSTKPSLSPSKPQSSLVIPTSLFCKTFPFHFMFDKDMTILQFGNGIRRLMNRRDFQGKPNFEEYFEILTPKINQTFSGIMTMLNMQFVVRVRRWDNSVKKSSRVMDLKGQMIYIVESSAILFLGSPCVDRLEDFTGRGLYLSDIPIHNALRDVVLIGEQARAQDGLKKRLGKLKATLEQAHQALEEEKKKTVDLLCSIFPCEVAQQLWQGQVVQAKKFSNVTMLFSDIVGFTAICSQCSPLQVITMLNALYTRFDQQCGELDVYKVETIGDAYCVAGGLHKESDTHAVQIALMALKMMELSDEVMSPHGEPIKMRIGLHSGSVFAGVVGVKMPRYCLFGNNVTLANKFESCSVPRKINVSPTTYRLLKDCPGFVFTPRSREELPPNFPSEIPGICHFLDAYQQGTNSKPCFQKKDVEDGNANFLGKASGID
Sequence of soluble guanylate cyclase (human GUCYA3 and GUCYB3) overexpressed in CHO cells (Q02153 whole entry): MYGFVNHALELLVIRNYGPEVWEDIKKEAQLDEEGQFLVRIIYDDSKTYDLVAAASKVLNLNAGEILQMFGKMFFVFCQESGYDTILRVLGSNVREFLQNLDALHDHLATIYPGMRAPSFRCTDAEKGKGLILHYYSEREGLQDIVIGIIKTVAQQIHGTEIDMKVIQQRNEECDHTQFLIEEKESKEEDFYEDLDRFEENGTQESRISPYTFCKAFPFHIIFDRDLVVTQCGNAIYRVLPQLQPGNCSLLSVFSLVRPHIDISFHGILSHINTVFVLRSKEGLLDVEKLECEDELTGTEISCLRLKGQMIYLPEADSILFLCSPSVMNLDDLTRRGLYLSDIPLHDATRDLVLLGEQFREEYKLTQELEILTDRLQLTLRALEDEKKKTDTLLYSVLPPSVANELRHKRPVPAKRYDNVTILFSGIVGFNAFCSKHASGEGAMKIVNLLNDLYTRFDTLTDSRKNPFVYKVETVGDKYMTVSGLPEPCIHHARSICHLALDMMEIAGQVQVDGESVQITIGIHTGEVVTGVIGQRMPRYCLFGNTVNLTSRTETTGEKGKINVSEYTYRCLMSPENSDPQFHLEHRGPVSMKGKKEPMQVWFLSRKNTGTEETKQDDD

This assay addresses soluble guanylate cyclase (human GUCYA3 and GUCYB3) overexpressed in CHO cells (Homo sapiens (Human), UniProt Q02108+Q02153). The experiment in a line: CHO cellular assay (cGMP production, Cisbio cGMP HTRF kit). In kind it is cell-based. As to conditions: CHO GUCY clone 8E10, cGMP production, assay buffer with 1 mM IBMX and 20 uM ODQ, 1 h room temperature; minimum quantification limit 0.5 nM (listed 0.5 nM means ≤0.5 nM); read-out: EC50. The text has this:
Chinese hamster ovary (CHO) cells overexpressing soluble guanylate cyclase were generated to test the effect of sGC activators in a cellular context. Human cDNAs for GUCYA3 (RefSeq: NM_000856.3) and GUCYB3 (RefSeq: NM_000857.1) were amplified by PCR from a HUVEC (Human Umbilical Vein Endothelial Cells) cDNA library and cloned into mammalian expression vectors. CHO K1 cells (ATCC CCL-61) were transfected using Lipofectamine 2000 following manufacturer's instructions and stably expressing clones were identified by antibiotic selection. CHO GUCY clone 8E10 was used for subsequent experiments. Cells were seeded at a density of 3000 cells/well in white 384-well proxyplates (Perkin Elmer) and incubated overnight, then the medium was removed and cells were washed with assay buffer (HBSS, 0.1% BSA. 1 mM IBMX, 20 uM ODQ). sGC activators were serially diluted in DMSO, then diluted in assay buffer prior to adding to cells (10 ul/well, final DMSO concentration 0.5%). Cells were incubated with compounds for 1 h room temperature, then assayed for cGMP production using Cisbio cGMP HTRF kit (62GM2PEC) according to manufacturer's instructions. The EC50s are calculated based on the amount of cGMP interpolated from the standard curve, using a 4-parameter sigmoidal dose-response.
(In TR-FRET formats the signal depends on donor and acceptor labels being close together.)
As to `Cc1cc2c(c(-c3cccc(-n4ncc(C(=O)O)c4C(F)(F)F)n3)c1)C(Nc1ccc(C3CCN(C(=O)C4CC4)CC3)cc1C)CC2` (racemic) [Example 11-1, (±)-1-(6-(3-((4-(1-(cyclopropanecarbonyl)piperidin-4-yl)-2-methylphenyl)amino)-6-methyl-2,3-dihydro-1H-inden-4-yl)pyridin-2-yl)-5-(trifluoromethyl)-1H-pyrazole-4-carboxylic acid], the EC50 was determined as 1 nM.
In the case of `Cc1cc(C2CCN(C(=O)C3CC3)CC2)ccc1NC1CCc2cccc(-c3cccc(-n4ncc(C(=O)O)c4C)c3)c21` (racemic) [Example 11-4, (±)-1-(3-(3-((4-(1-(cyclopropanecarbonyl)piperidin-4-yl)-2-methylphenyl)amino)-2,3-dihydro-1H-inden-4-yl)phenyl)-5-methyl-1H-pyrazole-4-carboxylic acid], the EC50 was no more than 0.5 nM.
With `Cc1cc(C2CCN(c3ccccn3)CC2)ccc1NC1CCc2cccc(-c3cccc(-n4ncc(C(=O)O)c4C)n3)c21` (racemic) [Example 59, (±)-Methyl-16-(3-((2-methyl-4-(1-(pyridin-2-yl)piperidin-4-yl)phenyl)amino)-2,3-dihydro-1H-inden-4-yl)pyridin-2-yl)-1H-pyrazole-4-carboxylic Acid], the EC50 was found to be 1 nM.
The same measure for `Cc1cc(C2CCN(C3CC3)CC2)ccc1NC1CCc2cccc(-c3cccc(-n4ncc(C(=O)O)c4C)n3)c21` (racemic) [Example 60, (±)-1-(6-(3-(4-(1-Cyclopropylpiperidin-4-yl)-2-methylphenyl)amino)-2,3-dihydro-1H-inden-4-yl)pyridin-2-yl)-5-methyl-1H-pyrazole-4-carboxylic Acid]: 5.3 nM.
For `Cc1cc(C2CCN(C(=O)C3CC3)CC2)cnc1NC1CCc2cccc(-c3cccc(-n4ncc(C(=O)O)c4C)n3)c21` (racemic) [Example 62, (±)-1-(6-(3-((5-(1-Cyclopropanecarbonyl)piperidin-4-yl)-3-methylpyridin-2-yl)amino)-2,3-dihydro-1H-inden-4-yl)pyridin-2-yl)-5-methyl-1H-pyrazole-4-carboxylic Acid], the EC50 was 6 nM.
For `CCC(=O)N1CCC(c2ccc(NC3CCc4cccc(-c5cccc(-n6ncc(C(=O)O)c6C)n5)c43)c(C)c2)CC1` (single isomer, unassigned) [(+)-46-2, (−)-5-Methyl-1-(6-(3-((2-methyl-4-(1-propionylpiperidin-4-yl)phenyl)amino)-2,3-dihydro-1H-inden-4-yl)pyridin-2-yl)-1H-pyrazole-4-carboxylic acid], the EC50 worked out at 1 nM.
Turning to `CCc1cc(CN2CC(C)c3cccc(-c4cccc(-n5ncc(C(=O)O)c5CC)n4)c32)ccc1C1CCN(C(=O)[C@H](C)O)CC1` (single isomer, unassigned) [Example 17a], the EC50 is no more than 0.5 nM.
For `CCc1cc(O[C@H]2CCc3cccc(-c4cccc(-n5ncc(C(=O)O)c5CC)n4)c32)ccc1C1CCN(C(=O)C(C)CCO)CC1` (single isomer, unassigned) [Example 32a], the EC50 is no more than 0.5 nM.
For `Cc1c(NC2CCc3cccc(-c4cccc(-n5ncc(C(=O)O)c5C)n4)c32)ccc(C2CCN(C(=O)CC3CC3)CC2)c1F` (single isomer, unassigned) [Example (+) or (−)-46-4, 1-(6-(3-((4-(1-(2-cyclopropylacetyl)piperidin-4-yl)-3-fluoro-2-methylphenyl)amino)-2,3-dihydro-1H-inden-4-yl)pyridin-2-yl)-5-methyl-1H-pyrazole-4-carboxylic acid], the EC50 worked out at 1.4 nM.
As to `Cc1c(NC2CCc3cccc(-c4cccc(-n5ncc(C(=O)O)c5C)n4)c32)ccc(C2CCN(C(=O)CC3CC3)CC2)c1F` (single isomer, unassigned) [Example (−) or (+)-46-4, 1-(6-(3-((4-(1-(2-cyclopropylacetyl)piperidin-4-yl)-3-fluoro-2-methylphenyl)amino)-2,3-dihydro-1H-inden-4-yl)pyridin-2-yl)-5-methyl-1H-pyrazole-4-carboxylic acid], the EC50 came to 136 nM.
